Laboratory results from patent publication US6969702B2, “Compounds and methods for increasing neurogenesis” (priority 2002, dated 2005).
Read-outs that look alike come from different tables or passages of the source. Marks after values point to notes of the source that are not given here. Bridge positions count the residues as written; N and C are the ends. Square brackets hold non-standard residues; d marks the D form. Ends that are not written are not given here. Peptide text beside a SMILES is read from it. pGlu = O=C1CC[C@@H](C(=O)O)N1

Tests used:
[1] = system: Adult neural stem cells; settings: 0.1 µM
[2] = system: Adult neural stem cells; assay: Flow cytometry for early neuronal marker Doublecortin; settings: for Fold Induction (Doublecortin-positive cells): vs EGF/FGF
[3] = system: cAMP activation in mouse adult neural stem cells; assay: cAMP detection (HitHunter EFC Cyclic AMP Chemiluminescence Assay); settings: Table 2; for Fold Induction cAMP: vs vehicle
[4] = system: cAMP activation in mouse adult neural stem cells
[5] = system: mouse adult neural stem cells; assay: ATP-assay: proliferation (ATP levels) of neurosphere-derived cells
[6] = system: mouse adult neural stem cells; settings: 0.1 µM
[7] = system: NFAT-Luciferace reporter (Ca^2+); settings: for NFAT Luciferace units: 24 hours after induction
[8] = system: CREB phosphorylation in mouse adult neural stem cells; type: cell-based; settings: 100 nM; mouse adult neural stem cells; time course 15 minutes to 8 hours
[9] = system: CREB phosphorylation in human adult neural stem cells; type: cell-based; settings: 100 nM; human adult neural stem cells; time course 15 minutes to 8 hours
[10] = Table 2, 10 nM, 4 days, vs vehicle

CC[C@H](C)[C@H](NC(=O)[C@H](CCC(N)=O)NC(=O)[C@H](Cc1c[nH]cn1)NC(=O)[C@H](C)NC(=O)[C@H](CC(C)C)NC(=O)[C@H](CCCCN)NC(=O)[C@H](CCC(N)=O)NC(=O)[C@@H](NC(=O)[C@@H](N)[C@@H](C)O)C(C)C)C(=O)N[C@@H](Cc1ccc(O)cc1)C(=O)N[C@@H](CCC(N)=O)C(=O)N[C@@H](Cc1ccccc1)C(=O)N[C@H](C(=O)N[C@@H](CC(=O)O)C(=O)N[C@@H](CCCCN)C(=O)N[C@@H](CC(=O)O)C(=O)N[C@@H](CCCCN)C(=O)N[C@@H](CC(=O)O)C(=O)N[C@@H](CC(N)=O)C(=O)N[C@H](C(=O)N[C@@H](C)C(=O)N1CCC[C@H]1C(=O)N[C@@H](CCCNC(=N)N)C(=O)N[C@@H](CO)C(=O)N[C@@H](CCCCN)C(=O)N[C@H](C(=O)N[C@@H](CO)C(=O)N1CCC[C@H]1C(=O)N[C@@H](CCC(N)=O)C(=O)NCC(=O)N[C@@H](Cc1ccc(O)cc1)C(N)=O)[C@@H](C)CC)C(C)C)[C@@H](C)O [Adrenomedullin (22-52)]
Fold Induction (Doublecortin-positive cells) [1]: 0.8 fold | % Doublecortin-positive cells [2]: 2.0% | cAMP (pmol/well) ([3]; 100 nM (cAMP concentration)): 0.34 ± 0.07 pmol/well | Fold Induction cAMP ([4]; 0.1 µM): 1.6* fold | ATP (nM ATP/well) ([5]; Table 2, 100 nM, 4 days): 12.3 ± 1.1 nM ATP/well | Fold Induction ATP [6]: 1.6** fold

CC[C@H](C)[C@H](NC(=O)[C@H](CCC(N)=O)NC(=O)[C@H](Cc1c[nH]cn1)NC(=O)[C@H](C)NC(=O)[C@H](CC(C)C)NC(=O)[C@H](CCCCN)NC(=O)[C@H](CCC(N)=O)NC(=O)[C@@H](NC(=O)[C@@H](NC(=O)[C@@H]1CSSC[C@H](NC(=O)CNC(=O)[C@H](Cc2ccccc2)NC(=O)[C@H](CO)NC(=O)[C@H](CCCNC(=N)N)NC(=O)[C@H](CC(C)C)NC(=O)CNC(=O)[C@H](CCC(N)=O)NC(=O)[C@H](Cc2ccccc2)NC(=O)[C@H](CC(N)=O)NC(=O)[C@H](CC(N)=O)NC(=O)[C@H](CCSC)NC(=O)[C@H](CO)NC(=O)[C@H](CCC(N)=O)NC(=O)[C@H](CCCNC(=N)N)NC(=O)[C@@H](N)Cc2ccc(O)cc2)C(=O)N[C@@H](CCCNC(=N)N)C(=O)N[C@@H](Cc2ccccc2)C(=O)NCC(=O)N[C@@H]([C@@H](C)O)C(=O)N1)[C@@H](C)O)C(C)C)C(=O)N[C@@H](Cc1ccc(O)cc1)C(=O)N[C@@H](CCC(N)=O)C(=O)N[C@@H](Cc1ccccc1)C(=O)N[C@H](C(=O)N[C@@H](CC(=O)O)C(=O)N[C@@H](CCCCN)C(=O)N[C@@H](CC(=O)O)C(=O)N[C@@H](CCCCN)C(=O)N[C@@H](CC(=O)O)C(=O)N[C@@H](CC(N)=O)C(=O)N[C@H](C(=O)N[C@@H](C)C(=O)N1CCC[C@H]1C(=O)N[C@@H](CCCNC(=N)N)C(=O)N[C@@H](CO)C(=O)N[C@@H](CCCCN)C(=O)N[C@H](C(=O)N[C@@H](CO)C(=O)N1CCC[C@H]1C(=O)N[C@@H](CCC(N)=O)C(=O)NCC(=O)N[C@@H](Cc1ccc(O)cc1)C(N)=O)[C@@H](C)CC)C(C)C)[C@@H](C)O [Adrenomedullin (human)]
Fold Induction (Doublecortin-positive cells) [1]: 1.6 fold | % Doublecortin-positive cells ([2]; Table 6, 100 nM, 4 days): 4.2% | cAMP (pmol/well) ([3]; 100 nM (cAMP concentration)): 0.15 ± 0.3 pmol/well | Fold Induction NFAT ([7]; 0.1 µM): 2.2** fold | NFAT Luciferace units ([7]; Table 4, 100 nM): 12.4 ± 0.9 Luciferace units | Fold Induction cAMP ([4]; 0.1 µM): 2.5** fold | ATP (nM ATP/well) ([5]; Table 2, 100 nM, 4 days): 11.6 ± 0.8 nM ATP/well | ATP (nM ATP/well) ([5]; Table 4, 100 nM): 11.6 ± 0.8 nM ATP/well | Fold Induction ATP [6]: 1.1* fold

CC[C@H](C)[C@H](NC(=O)[C@H](Cc1ccccc1)NC(=O)[C@H](C)NC(=O)[C@H](CC(=O)O)NC(=O)[C@H](CCCCN)NC(=O)[C@H](CO)NC(=O)[C@@H]1CCCN1C(=O)[C@@H]1CCC(=O)N1)C(=O)NCC(=O)N[C@@H](CC(C)C)C(=O)N[C@@H](CCSC)C(N)=O [Eledoisin] ([pGlu]PSKDAFIGLM-NH2)
Fold Induction (Doublecortin-positive cells) ([1]; mouse): 1.7 fold | % Doublecortin-positive cells ([2]; Table 6, 100 nM, 4 days): 4.3% | cAMP (pmol/well) ([3]; 1 nM (cAMP concentration)): 1.0 ± 0.06 pmol/well | Fold Induction cAMP ([4]; mouse, 0.001 µM): 1.2* (1 nM) fold | ATP (nM ATP/well) ([5]; Table 2, 100 nM, 4 days): 10.4 ± 1.1 nM ATP/well | Fold Induction ATP ([6]; mouse): 1.2* fold

CC[C@H](C)[C@H](NC(=O)[C@H](CC(=O)O)NC(=O)[C@H](CC(C)C)NC(=O)[C@H](Cc1cnc[nH]1)NC(=O)[C@@H]1CSSC[C@H](N)C(=O)N[C@@H](CO)C(=O)N[C@H]2CSSC[C@H](NC(=O)[C@H](CCC(=O)O)NC(=O)[C@H](CCCCN)NC(=O)[C@H](CC(=O)O)NC(=O)[C@H](CCSC)NC(=O)[C@H](CC(C)C)NC(=O)[C@H](CO)NC(=O)[C@H](CO)NC2=O)C(=O)N[C@@H](C(C)C)C(=O)N[C@@H](Cc2ccc(O)cc2)C(=O)N[C@@H](Cc2ccccc2)C(=O)N1)C(=O)N[C@H](C(=O)N[C@@H](Cc1c[nH]c2ccccc12)C(=O)O)[C@@H](C)CC [Endothelin-1 (human, porcine)]
% Doublecortin-positive cells ([2]; Table 6, 10 nM, 4 days): 5.0% | Fold Induction (Doublecortin-positive cells) ([2]; Table 6, 10 nM): 2.0 fold | cAMP (pmol/well) ([3]; 10 nM (cAMP concentration)): 3.64 ± 1.13 pmol/well | Fold Induction cAMP ([3]; 10 nM): 2.0* fold | NFAT Luciferace units ([7]; Table 4, 10 nM): 13.3 ± 1.3 Luciferace units | Fold Induction NFAT ([7]; Table 4, 10 nM, vs vehicle): 1.6** fold | ATP (nM ATP/well) ([5]; Table 2, 10 nM, 4 days): 41.7 ± 7.2 nM ATP/well | Fold Induction ATP [5, 10]: 2.5* fold | ATP (nM ATP/well) ([5]; Table 4; 10 nM; Porcine,)): 35.3 ± 3.7 nM ATP/well | Fold Induction ATP ([5]; Table 4; 10 nM; vs vehicle; Porcine,), 0.01 µM): 1.3* fold

CC[C@H](C)[C@H](NC(=O)CNC(=O)[C@H](CC(=O)O)NC(=O)[C@H](CO)NC(=O)[C@@H](N)Cc1cnc[nH]1)C(=O)N[C@@H](Cc1ccccc1)C(=O)N[C@H](C(=O)N[C@@H](CC(=O)O)C(=O)N[C@@H](CO)C(=O)N[C@@H](Cc1ccc(O)cc1)C(=O)N[C@@H](CO)C(=O)N[C@@H](CCCNC(=N)N)C(=O)N[C@@H](Cc1ccc(O)cc1)C(=O)N[C@@H](CCCNC(=N)N)C(=O)N[C@@H](CCCCN)C(=O)N[C@@H](CCC(N)=O)C(=O)N[C@@H](CCSC)C(=O)N[C@@H](C)C(=O)N[C@H](C(=O)N[C@@H](CCCCN)C(=O)N[C@@H](CCCCN)C(=O)N[C@@H](Cc1ccc(O)cc1)C(=O)N[C@@H](CC(C)C)C(=O)N[C@@H](C)C(=O)N[C@@H](C)C(=O)N[C@H](C(=O)N[C@@H](CC(C)C)C(=O)NCC(=O)N[C@@H](CCCCN)C(=O)N[C@@H](CCCNC(=N)N)C(=O)N[C@@H](Cc1ccc(O)cc1)C(=O)N[C@@H](CCCCN)C(=O)N[C@@H](CCC(N)=O)C(=O)N[C@@H](CCCNC(=N)N)C(=O)N[C@H](C(=O)N[C@@H](CCCCN)C(=O)N[C@@H](CC(N)=O)C(=O)N[C@@H](CCCCN)C(N)=O)C(C)C)C(C)C)C(C)C)[C@@H](C)O [PACAP-38]
% Doublecortin-positive cells ([2]; Table 6, 100 nM, 4 days): 5.2% | Fold Induction (Doublecortin-positive cells) ([2]; Table 6, 100 nM): 2.0 fold | cAMP (pmol/well) ([3]; 100 nM (cAMP concentration)): 0.13 ± 0.03 pmol/well | Fold Induction cAMP ([3]; 100 nM): 4.2** fold | NFAT Luciferace units ([7]; Table 4, 10 nM): 6.2 ± 1.6 Luciferace units | Fold Induction NFAT ([7]; Table 4, 10 nM, vs vehicle): 1.7* fold | ATP (nM ATP/well) ([5]; Table 2, 100 nM, 4 days): 26.9 ± 3.7 nM ATP/well | Fold Induction ATP ([5]; Table 2, 100 nM, 4 days, vs vehicle): 2.9** fold | ATP (nM ATP/well) ([5]; Table 4, 10 nM): 22.0 ± 0.9 nM ATP/well | Fold Induction ATP ([5]; Table 4, 10 nM, vs vehicle): 2.3*** fold

CC[C@H](C)[C@H](NC(=O)[C@@H](NC(=O)[C@H](CC(=O)O)NC(=O)[C@H](CCC(N)=O)NC(=O)[C@H](Cc1c[nH]cn1)NC(=O)[C@@H]1CSSC[C@H](N)C(=O)N[C@@H](CO)C(=O)N[C@H]2CSSC[C@H](NC(=O)[C@H](CCC(=O)O)NC(=O)[C@H](CCCCN)NC(=O)[C@H](CC(=O)O)NC(=O)[C@H]([C@@H](C)O)NC(=O)[C@H](CCSC)NC(=O)[C@H](CC(=O)O)NC(=O)[C@H](CCCCN)NC2=O)C(=O)N[C@@H](CC(C)C)C(=O)N[C@@H](CC(N)=O)C(=O)N[C@@H](Cc2ccccc2)C(=O)N1)C(C)C)C(=O)N[C@@H](Cc1c[nH]c2ccccc12)C(=O)O [Sarafotoxin S6a] (H-CSCKDMTDKECLNFCHQDVIW-OH; disulfide 1-15, 3-11; N-terminus and C-terminus assumed)
% Doublecortin-positive cells ([2]; Table 6, 100 nM, 4 days): 3.2% | Fold Induction (Doublecortin-positive cells) ([2]; Table 6, 100 nM): 1.3 fold | cAMP (pmol/well) ([3]; 10 nM (cAMP concentration)): 0.41 ± 0.06 pmol/well | Fold Induction cAMP ([3]; 10 nM): 1.4* fold | NFAT Luciferace units ([7]; Table 4, 1 nM): 6.3 ± 2.4 Luciferace units | Fold Induction NFAT ([7]; Table 4, 1 nM, vs vehicle): 3.4* fold | ATP (nM ATP/well) ([5]; Table 2, 10 nM, 4 days): 43.3 ± 4.5 nM ATP/well | Fold Induction ATP [5, 10]: 3.5*** fold | ATP (nM ATP/well) ([5]; Table 4, 1 nM): 38.9 ± 3.2 nM ATP/well | Fold Induction ATP ([5]; Table 4, 1 nM, vs vehicle): 3.1*** fold

CC1(C)SSC(C)(C)[C@@H](NC(=O)[C@@H](N)Cc2ccc(O)cc2)C(=O)NCC(=O)N[C@@H](Cc2ccccc2)C(=O)N[C@H]1C(=O)O [[D-Pen2-5]-Enkephalin]
% Doublecortin-positive cells ([2]; Table 6, 100 nM, 4 days): 3.3% | Fold Induction (Doublecortin-positive cells) ([2]; Table 6, 100 nM): 1.3 fold | cAMP (pmol/well) ([3]; 10 nM (cAMP concentration)): 0.06 ± 0.01 pmol/well | Fold Induction cAMP ([3]; 10 nM): 1.7* fold | NFAT Luciferace units ([7]; Table 4, 100 nM): 10.3 ± 2.1 Luciferace units | Fold Induction NFAT ([7]; Table 4, 100 nM, vs vehicle): 1.8* fold | ATP (nM ATP/well) ([5]; Table 2, 10 nM, 4 days): 10.7 ± 0.9 nM ATP/well | Fold Induction ATP [5, 10]: 1.2** fold | ATP (nM ATP/well) ([5]; Table 4, 10 nM): 10.7 ± 0.9 nM ATP/well | Fold Induction ATP ([5]; Table 4, 10 nM, vs vehicle): 1.2* fold

PACAP: pituitary adengate cyclase activating peptide, cAMP activator (HSDGIFTDSYSRYRKQMAVKKYLAAVLGKRYKQRVKNK; ends and bridges not checked; UniProt P18509 132-169, looked up)
CREB phosphorylation [8]: up-regulation of CREB phosphorylation | CREB phosphorylation [9]: up-regulation of CREB phosphorylation
